# Measurements published in US20240336596A1, “PARP7 INHIBITOR AND USE THEREOF” (NOVOSTAR PHARMACEUTICALS, LTD., priority 2022, published 2024).
# Key:
# [1] = system: NCI-H1373 cancer cells; assay: NCI-H1373 cancer cell growth inhibition (CellTiter-Glo, 144 hours); format: cell-based; conditions: Homo sapiens, 144 hours culture
# Protocol: Promega CellTiter-Glo cell activity assay kit (Item No.: Promege-G7573) was used to determine the cell activity. 90 μL NCI-H1373 cell suspension (ATCC, catalog No. CRL-5866, batch No. 58078716) was spread into the pores of the 96-well plate with 3500 cells per well. After 24 hours, the 10 μL prepared 10× compound working solution was added into the pores of the cell culture plate with a final concentration of 10 μM. 3.3333 μM, 1.1111 μM, 0.3704 μM, 0.1235 μM, 0.0412 μM, 0.0137 μM, 0.0046 μM, 0.0015 μM, 0.0005 μM, 10 μL DMSO was added to the solvent control, and the final concentration of DMSO was 0.2%. The 0-day plates were collected for analysis, and after 144 hours of culture, the growth condition of cells was detected according to the instructions of CellTiter-Glo cell activity assay kit. Add 50 μL of CellTiter-Glo working liquid into each hole of the cell culture plate, shake the plates in the dark for 2 minutes until cell lysis, and place at room temperature for 10 minutes to detect the luminous signal (RUL) of each cell hole on the 2104En Vision board reader.
# Calculation formula: Growth inhibition rate %=(1−(RLU compound−RLU Day0)/(RLU solvent control−RLU Day0))*100%. The dose-response curves of each compound were fitted by GraphPad Prism 8 to obtain IC50 values.
# For the matter, IC50 values less than 0.1 μM are labeled “+++”, values from 0.1 to 1 μM are labeled “++”, and values greater than 1 to 10 μM are labeled “+”.
# [2] = target: T1, recombinant human PARP7 protein (Homo sapiens, UniProt Q7Z3E1); assay: Inhibition of PARP7 biological enzyme activity (histone-coated plate, Biotin-NAD+, chemiluminescence); format: biochemical; conditions: recombinant human PARP7, Biotin-NAD+ substrate
# T1 construct: purchased Abcam ab271651
# T1 sequence (Q7Z3E1 1-657): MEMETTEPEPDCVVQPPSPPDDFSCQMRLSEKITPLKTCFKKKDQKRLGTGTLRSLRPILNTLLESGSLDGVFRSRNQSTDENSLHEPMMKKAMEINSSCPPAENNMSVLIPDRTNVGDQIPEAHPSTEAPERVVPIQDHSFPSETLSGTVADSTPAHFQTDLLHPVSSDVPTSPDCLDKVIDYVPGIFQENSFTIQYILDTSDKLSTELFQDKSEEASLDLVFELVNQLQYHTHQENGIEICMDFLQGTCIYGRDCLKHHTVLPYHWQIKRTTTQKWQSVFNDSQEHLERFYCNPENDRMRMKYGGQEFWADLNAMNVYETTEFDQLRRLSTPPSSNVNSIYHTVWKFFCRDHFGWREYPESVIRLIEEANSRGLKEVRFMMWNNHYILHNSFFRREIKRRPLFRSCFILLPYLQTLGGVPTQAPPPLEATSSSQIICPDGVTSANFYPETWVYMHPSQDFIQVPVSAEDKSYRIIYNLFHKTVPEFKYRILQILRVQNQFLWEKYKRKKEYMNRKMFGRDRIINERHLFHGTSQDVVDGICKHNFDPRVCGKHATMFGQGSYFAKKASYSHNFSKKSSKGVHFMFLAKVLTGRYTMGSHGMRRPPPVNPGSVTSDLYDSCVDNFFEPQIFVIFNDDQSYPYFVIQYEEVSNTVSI
# Protocol: The recombinant human PARP7 protein kit (Abcam, catalog number ab271651) was used for the assay. According to the kit instructions, 30 μL of histone coating solution (1.5 μg/mL) was first applied to the 384 well holes of the reaction plate and coated at 4° C. for 2 hours. Then, the histone coated solution was washed off, and 50 μL sealing buffer was added to each well, and the sealing buffer was washed off after incubation at 25° C. for 60 minutes. 1000 times the concentration of the compound was 10 configured and diluted from 1 mM to 0.05 μM, and the configured compound was transferred to 384-well plates with 25 nL per well using Echo. The final concentration of the compound in the reaction system was 1000 nM, 333.33 nM, 111.11 nM, 37.03 nM, 12.34 nM, 4.11 nM, 1.37 nM, 0.45 nM, 0.15 nM, 0.05 nM, which was used as the test hole. At the same time, 25 nL DMSO was added to the negative control well and the positive control well. The PARP7 enzyme solution with a concentration of 1.67 times was prepared, and the PARP7 enzyme solution was added to the test hole and the positive control hole with 15 μL each, while the negative control hole was added with 15 μL base Buffer, and incubated at 25° C. for 15 minutes. Then 10 μL 2.5 times Biotin-NAD+ substrate solution was added and incubated at 25° C. for 60 min. After the reaction solution was washed off, the 384-well reaction plates were treated with closed buffer solution diluted with streptavidin-HRP (1:500), each well was 30 μL, and incubated at 25° C. for 30 min. After the HRP buffer was washed off, 30 μL HRP chemiluminescent substrate mixture was added to each well, and the luminescence signal (RLU) of each well was detected by Envision. Calculation formula: Inhibition rate %=(average positive control-RLU compound)/(average positive control-average negative control))*100%. The dose-response curves of each compound were fitted by GraphPad Prism 8 to get IC50 values. IC50 values less than 0.01 μM are labeled as “+++”, IC50 values from 0.01 to 0.1 µM are labeled as “++”, and IC50 values greater than 0.1 to 10.0 μM are labeled as “+”.
Compound,IC50 [1] [nM],IC50 [2] [nM]
"C[C@@H](/C=N/OCC(=O)N1CCN(c2ncc(C(F)(F)F)cn2)CC1)Nc1cn[nH]c(=O)c1C(F)(F)F [Example 5, (S,E)-2-((6-oxo-5-(trifluoromethyl)-1,6-dihydropyridazin-4-yl)amino) propanal O-(2-oxo-2-(4-(5-(trifluoromethyl)pyrimidin-2-yl)piperazin-1-yl)ethyl) oxime]",< 100,< 10
"C[C@@H](/C=N/OCC(=O)N1CCN(c2ccc(C(F)(F)F)cn2)CC1)Nc1cn[nH]c(=O)c1C(F)(F)F [Example 12, (S,E)-2-((6-oxo-5-(trifluoromethyl)-1,6-dihydropyridazin-4-yl)amino)propanal O-(2-oxo-2-(4-(5-(trifluoromethyl)pyridin-2-yl)piperazin-1-yl)ethyl) oxime]",100 to 1000,< 10
"C[C@@H](CONC(=O)CC1CCN(c2ncc3cc[nH]c3n2)CC1)Nc1cn[nH]c(=O)c1C(F)(F)F [Example 38, (S)-2-(1-(7H-pyrrolo(2,3-d)pyrimidin-2-yl)piperidin-4-yl)-N-(2-((6-oxo-5-(trifluoromethyl)-1,6-dihydropyridazin-4-yl)amino)propoxy)acetamide]",100 to 1000,< 10
"C[C@@H](CONC(=O)CC1=CCN(c2ncc(C3CC3)cn2)CC1)Nc1cn[nH]c(=O)c1C(F)(F)F [Example 29, (S)-2-(1-(5-cyclopropylpyrimidin-2-yl)-1,2,3,6-tetrahydropyridin-4-yl)-N-(2-((6-oxo-5-(trifluoromethyl)-1,6-dihydropyridazin-4-yl)amino)propoxy)acetamide]",< 100,< 10
"CC1=C(CC(=O)NOC[C@H](C)Nc2cn[nH]c(=O)c2C(F)(F)F)CCN(c2ncc(-c3ccccc3F)cn2)C1 [Example 28, (S)-2-(1-(5-(2-fluorophenyl)pyrimidin-2-yl)-5-methyl-1,2,3,6-tetrahydropyridin-4-yl)-N-(2-((6-oxo-5-(trifluoromethyl)-1,6-dihydropyridazin-4-yl)amino)propoxy)acetamide]",100 to 1000,< 10

# Further lines, results first:
IC50 [1] [nM],IC50 [2] [nM],Compound
1000 to 10000,< 10,"C[C@@H](/C=N/OCC(=O)N1CCN(c2ccc(C#N)cn2)CC1)Nc1cn[nH]c(=O)c1C(F)(F)F [Example 11, (S,E)-6-(4-(2-(((2-((6-oxo-5-(trifluoromethyl)-1,6-dihydropyridazin-4-yl)amino)propylidene)amino)oxy)acetyl)piperazin-1-yl)nicotinonitrile]"
100 to 1000,< 10,"C[C@@H](CONC(=O)/C=C1/CCN(c2ncc(C(F)(F)F)cn2)CC1F)Nc1cn[nH]c(=O)c1C(F)(F)F (stereo partly drawn) [Example 24, (Z)-2-(3-fluoro-1-(5-(trifluoromethyl)pyrimidin-2-yl)piperidin-4-ylidene)-N—((S)-2-((6-oxo-5-(trifluoromethyl)-1,6-dihydropyridazin-4-yl)amino)propoxy)acetamide]"
100 to 1000,< 10,"C[C@@H](CONC(=O)CC1CCN(c2ncc3cc(F)ccc3n2)CC1)Nc1cn[nH]c(=O)c1C(F)(F)F [Example 39, (S)-2-(1-(6-fluoroquinazolin-2-yl)piperidin-4-yl)-N-(2-((6-oxo-5-(trifluoromethyl)-1,6-dihydropyridazin-4-yl)amino)propoxy)acetamide]"
< 100,< 10,C[C@@H](CONC(=O)C(F)C1CCN(c2ncc(C(F)(F)F)cn2)CC1)Nc1cn[nH]c(=O)c1C(F)(F)F (some centres unmarked) [Example 48]
100 to 1000,< 10,"O=C(CO/N=C1\CCC[C@@H]1Nc1cn[nH]c(=O)c1C(F)(F)F)N1CCN(c2ncc(C(F)(F)F)cn2)CC1 [Example 9, (S,E)-5-((2-((2-oxo-2-(4-(5-(trifluoromethyl)pyrimidin-2-yl)piperazin-1-yl)ethoxy)imino)cyclopentyl)amino)-4-(trifluoromethyl)pyridazin-3(2H)-one]"
